Assay results from US20240317827A1, “LINEAR PEPTIDES INHIBITING CK2-MEDIATED PHOSPHORYLATION AND COMPOSITIONS COMPRISING SAME” (CENTRO DE INGENIERÍA GENÉTICA Y BIOTECNOLOGÍA, priority 2021, published 2024).
Read-outs that look alike come from different tables or passages of the source. Where a SMILES comes first, the peptide text is derived from it. Bridges are numbered along the chain shown (N, C = ends). [ ]: non-standard residue; d: D form. βAla = NCCC(=O)O

Legend:
[1] = system: NCI-H125 cell line (non-small cell lung cancer); assay: cell proliferation assay, NCI-H125 line; type: cell-based
Procedure: The evaluation of the antiproliferative activity of polypeptides F11P13-F11P21 (SEQ ID NO: 12-SEQ ID NO: 20) was performed on the NCI-H125 cell line. […] The antiproliferative effect of the CIGB-300 peptide has been widely characterized in this line (Cirigliano S. M., et al., 2017, Cancer Cell International, 17, 42), therefore, it was selected as a positive control. Tat peptide was used as a negative control. The polypeptides were evaluated at the concentrations of 25, 50, 100 and 200 μM. The cell proliferation assay was performed by a previously described procedure (Perera Y., et al., 2012, J. Pept. Sci, 18 (4):215-23).
The 24 polypeptides identified as SEQ ID NO: 21-SEQ ID NO: 44 maintained the ability to inhibit the phosphorylation of the E7 protein of HPV-16, mediated by CK2, since phosphorylation inhibition values between 60-85% were obtained. […] Evaluation of the antiproliferative activity of synthetic polypeptides generated by positional scanning of Trp (SEQ ID NO: 21-SEQ ID NO: 44) was performed on the NCI-H125 cell line. The test was performed by the procedure previously described. (Perera Y., et al., 2012, J. Pept. Sci, 18 (4): 215-23). Precursor polypeptides (F11P19, F11P20, F11P21) and peptide CIGB-300 were included as positive controls. The polypeptides were evaluated at the concentrations of 12.5; 25; fifty; 100 and 200 μM.
(§1) The evaluation of the antiproliferative activity of synthetic polypeptides A15P35, A15P36 and A15P37 (SEQ ID NO: 46-SEQ ID NO: 48) was performed on the NCI-H125, AsPC-1, PanC-1 (pancreatic carcinoma) and OCI-AML3 (acute myeloid leukemia-3) cell lines. The test was carried out according to the procedure previously described (Perera Y, et al., 2012, J. Pept. Sci, 18 (4):215-23). […] The polypeptides A15P35, A15P36 and A15P37 were able to produce a dose-dependent effect on the proliferation of NCI-H125 cells.
(§2) Antiproliferative assays were performed on the NCI-H125, Hep2C (laryngeal carcinoma) cell lines, and on two bladder cancer lines (MGH-U3 and MGH-U4). The test was carried out according to the procedure previously described (Perera Y., et al, 2012, Pept. Sci, 18 (4):215-23).

[2] = system: OCI-AML3 (acute myeloid leukemia-3) cell line; assay: cell proliferation assay, OCI-AML3 line; type: cell-based; conditions: Table 7
Procedure: as §1

[3] = system: AsPC-1 cell line (pancreatic adenocarcinoma); type: cell-based
Procedure: The cell proliferation assay was performed following the procedure previously described (Perera Y, et al., 2012, J. Pept. Sci, 18 (4):215-23).
as §1

[4] = system: PanC-1 (pancreatic carcinoma) cell line; assay: cell proliferation assay, PanC-1 line; type: cell-based; conditions: Table 7
Procedure: as §1

[5] = biological target: T1, CK2-mediated phosphorylation of the HPV-16 E7 oncoprotein (Human papillomavirus type 16, UniProt P03129); assay: in vitro phosphorylation reaction, E7 oncoprotein (GST fusion) as substrate; type: biochemical; conditions: procedure of Example 2
T1 construct: Glutathione S-Transferase (GST); made in house; host or cells: Escherichia coli
Procedure: The assay to measure the effect of these peptides on the CK2-mediated phosphorylation of the HPV-16 E7 oncoprotein, was based on an in vitro phosphorylation reaction, where the E7 oncoprotein of HPV-16 expressed in Escherichia coli was used as substratum. This oncoprotein was obtained as a fusion protein to Glutathione S-Transferase. The assay was performed according to the procedure previously described. (Perea S. E., et al., 2004, Cancer Res., 64: 7127-7129). The results are shown in FIG. 1, and indicate that the peptides identified as SEQ ID NO: 1-SEQ ID NO: 9 are capable of inhibiting CK2-mediated phosphorylation of the E7 protein of HPV-16.

[6] = system: MGH-U4 bladder cancer line; assay: cell proliferation assay, MGH-U4 line; type: cell-based; conditions: Table 9
Procedure: as §2

[7] = system: MGH-U3 bladder cancer line; assay: cell proliferation assay, MGH-U3 line; type: cell-based, human; conditions: Table 9
Procedure: as §2

[8] = system: Hep2C (laryngeal carcinoma) cell line; assay: cell proliferation assay, Hep2C line; type: cell-based; conditions: Table 9
Procedure: as §2

[9] = system: cell proliferation in vitro; conditions: literature value; read-out: mean maximum inhibitory concentration (IC50), cell proliferation in vitro; cited from earlier work
[10] = biological target: phosphoacceptor site of the CK2 enzyme in the E7 protein of HPV-16 (BIOT peptide, […]) (Human papillomavirus type 16, UniProt P03129); conditions: peptide coupled to resin; BIOT peptide 120 μg/mL; streptavidin-alkaline phosphatase, BCIP
Procedure: For the identification of bioactive linear peptides that interact with the phosphoacceptor site of the CK2 enzyme, a combinatorial library of synthetic linear peptides named BCP-1 by type of “one-bead-one-compound” was screened, containing more than 16 million of different peptide sequences. […] Screening was performed with a biotinylated synthetic peptide, called BIOT, which contains the phosphoacceptor site of the CK2 enzyme in the E7 substrate of HPV-16 ([sequence], identified as SEQ ID NO: 63). The streptavidin-alkaline phosphatase conjugate was used as recognition molecule, and p-toluidine salt of 5-bromo-4-chloro-3-indolyl-phosphate (BCIP) was used as substrate for development. The blue color facilitates the visual differentiation of the beads containing bioactive sequences recognized by the BIOT peptide, compared to the bright light yellow color of the TentaGel resin at the BCP-1 library.
The BCP-1 library was placed in a polypropylene reactor with a vacuum filtration system and mechanical agitation. It was washed with purified water and saline phosphate buffer solution (PBS) pH 7.4; and blocked with 1% bovine serum albumin (BSA) in PBS pH 7.4 for one hour. Solvents and reagents were removed by vacuum filtration. The library was incubated with 80 mL of a BIOT peptide solution at 150 g/mL in 1% BSA in PBS pH 7.4, for 16 h at 4° C. […]

[11] = biological target: T2, E7 oncoprotein of HPV-16 expressed in Escherichia coli as a fusion protein to Glutathione S-Transferase (Human Papillomavirus (HPV)-16, UniProt P03129 1-98); assay: cell-based or functional assay
T2 sequence: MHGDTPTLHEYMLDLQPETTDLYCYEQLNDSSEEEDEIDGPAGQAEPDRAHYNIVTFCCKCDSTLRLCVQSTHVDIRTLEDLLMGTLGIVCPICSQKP

[12] = Table 7, read-out: IC50 (μM) NCI-H125

Q: Which results are given for N=C(N)NCCC[C@H](NC(=O)CN)C(=O)N[C@@H](CCCCN)C(=O)N[C@@H](CCCCN)C(=O)N[C@@H](CCCNC(=N)N)C(=O)N[C@@H](CCCNC(=N)N)C(=O)N[C@@H](CCC(N)=O)C(=O)N[C@@H](CCCNC(=N)N)C(=O)N[C@@H](CCCNC(=N)N)C(=O)N[C@@H](CCCNC(=N)N)C(=O)N1CCC[C@H]1C(=O)N1CCC[C@H]1C(=O)N[C@@H](CCC(N)=O)C(=O)NCCC(=O)N[C@@H](Cc1c[nH]c2ccccc12)C(=O)N[C@@H](CCCCN)C(=O)N[C@@H](CCCNC(=N)N)C(=O)N[C@@H](CO)C(=O)N[C@@H](CCCNC(=N)N)C(=O)N[C@@H](Cc1ccc(O)cc1)C(=O)N[C@@H](Cc1c[nH]c2ccccc12)C(=O)N1CCC[C@H]1C(N)=O [A15P35, GRKKRRQRRRPPQ-βA-WKRSRYWP] (H-GRKKRRQRRRPPQ[βAla]WKRSRYWP-NH2; N-terminus and C-terminus assumed)?
A: IC50 [1, 12]: 106 µM; IC50 [2]: 130 µM; IC50 ([3]; Table 7, read-out: IC50 (μM) AsPC-1): 127 µM; IC50 [4]: 145 µM

Q: For CSCC[C@@H]1NC(=O)[C@H](Cc2c[nH]c3ccccc23)NC(=O)[C@@H](NC(=O)CCNC(=O)[C@H](CCC(N)=O)NC(=O)[C@@H]2CCCN2C(=O)[C@@H]2CCCN2C(=O)[C@H](CCCNC(=N)N)NC(=O)[C@H](CCCNC(=N)N)NC(=O)[C@H](CCCNC(=N)N)NC(=O)[C@H](CCC(N)=O)NC(=O)[C@H](CCCNC(=N)N)NC(=O)[C@H](CCCNC(=N)N)NC(=O)[C@H](CCCCN)NC(=O)[C@H](CCCCN)NC(=O)[C@H](CCCNC(=N)N)NC(=O)CN)CSSC[C@@H](C(N)=O)NC(=O)[C@H]([C@@H](C)O)NC(=O)CNC(=O)[C@H](CC(C)C)NC(=O)[C@H](Cc2c[nH]cn2)NC(=O)[C@H](CCCNC(=N)N)NC(=O)[C@@H]2CCCN2C(=O)[C@H](CO)NC1=O [CIGB-300, cycle (Cys15-Cys25) GRKKRRQRRRPPQ-βA-CWMSPRHLGTC, reference compound] (H-GRKKRRQRRRPPQ[βAla]CWMSPRHLGTC-NH2; disulfide 15-25; N-terminus and C-terminus assumed), which “percentage of inhibition of proliferation” value ([1]; NCI-H125, evaluated at 25, 50, 100 and 200 μM, concentration not given) is on record?
A: The value was 50%.

Q: What about the IC50 ([1]; NCI-H125, read-out: IC50 (dose-effect curves)) of the same molecule?
A: Its IC50 is 64 µM.

Q: What about the IC50 [1, 12] of the same molecule?
A: Its IC50 is 64 µM.

Q: And the IC50 ([1]; Table 9, read-out: IC50 (μM) NCl-H125)?
A: The IC50 was 64 µM.

Q: What about the IC50 [2] of the same molecule?
A: The IC50 was 63 µM.

Q: What about the phosphorylation inhibition [5] of the same molecule?
A: The phosphorylation inhibition was 87%.

Q: And the IC50 ([3]; AsPC-1, read-out: IC50)?
A: Its IC50 is 102 µM.

Q: And the IC50 [6]?
A: The IC50 was 335 µM.

Q: What about the IC50 [7] of the same molecule?
A: Its IC50 is 327 µM.

Q: And the IC50 [4]?
A: The IC50 was 156 µM.

Q: And the IC50 [8]?
A: The IC50 was 61 µM.

Q: With O=C(O)c1ccc2c(c1)nc(Nc1cccc(Cl)c1)c1ccncc12 [CX-4945] as the molecule, how does the IC50 [9] read?
A: The IC50 was 5.5 µM.

Q: Which “blue color development after enzymatic assay (interaction with the CK2 phosphoacceptor site)” value [10] does the source give for EQPAFHDP [P10] here?
A: The value was “did not develop blue coloration”.

Q: Which phosphorylation inhibition [5] does the source give for RKRSRYWP [D14P165] here?
A: The phosphorylation inhibition was 85%.

Q: For RKRSWYWP [D15P106], which phosphorylation inhibition [5] is on record?
A: The phosphorylation inhibition was 82%.

Q: Which phosphorylation inhibition [5] does the source give for RKRWRYWP [D15P105] here?
A: The phosphorylation inhibition was 87%.

Q: With VAGFFLDP [P11] as the molecule, how does the “blue color development after enzymatic assay (interaction with the CK2 phosphoacceptor site)” value [10] read?
A: The value was “did not develop blue coloration”.

Q: For RKRSRYWP [peptide D14P165 (RKRSRYWP)], which “inhibition of CK2-mediated phosphorylation of HPV-16 E7 (in vitro phosphorylation reaction, GST-E7 substrate)” value [11] is on record?
A: Its value is 85%.

Q: Which “inhibition of CK2-mediated phosphorylation of HPV-16 E7 (in vitro phosphorylation reaction, GST-E7 substrate)” value [11] does the source give for RKRSWYWP [peptide D15P106 (RKRSWYWP)] here?
A: The value was 82%.

Q: With RKRWRYWP [peptide D15P105 (RKRWRYWP)] as the molecule, how does the “inhibition of CK2-mediated phosphorylation of HPV-16 E7 (in vitro phosphorylation reaction, GST-E7 substrate)” value [11] read?
A: The value was 87%.
